# Measurements as given in ChEMBL document CHEMBL1201862, “PubChem BioAssay data set” (2004).
# Calls of active or inactive are those of the source.
# Key:
# [1] = target: Glyceraldehyde-3-phosphate dehydrogenase (Homo sapiens, UniProt P04406)
# [2] = target: T1, Alkaline phosphatase, tissue-nonspecific isozyme (Homo sapiens, UniProt P05186); experiment: human TNAP enzyme inhibitors, SAR follow-up, biochemical, luminescent, dose response (AID 1056)
# T1 sequence (P05186 whole entry): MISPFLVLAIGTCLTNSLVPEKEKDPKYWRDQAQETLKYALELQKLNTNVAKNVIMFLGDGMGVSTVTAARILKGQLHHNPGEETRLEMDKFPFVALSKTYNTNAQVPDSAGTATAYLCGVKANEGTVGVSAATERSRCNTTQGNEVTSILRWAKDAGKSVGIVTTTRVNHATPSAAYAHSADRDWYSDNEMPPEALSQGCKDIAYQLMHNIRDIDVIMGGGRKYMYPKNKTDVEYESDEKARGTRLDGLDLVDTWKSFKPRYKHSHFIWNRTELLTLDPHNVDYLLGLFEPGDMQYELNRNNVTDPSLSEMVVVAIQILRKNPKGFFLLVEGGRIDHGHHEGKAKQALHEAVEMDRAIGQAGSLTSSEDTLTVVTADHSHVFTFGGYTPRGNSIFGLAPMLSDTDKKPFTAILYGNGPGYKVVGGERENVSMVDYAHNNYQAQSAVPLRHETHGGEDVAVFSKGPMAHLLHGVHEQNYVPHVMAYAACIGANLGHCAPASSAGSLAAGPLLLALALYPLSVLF
# Bcl-2-related protein A1 = target: T2, Bcl-2-related protein A1 (Mus musculus, UniProt Q07440); format: functional;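 further: confirmatory dose–response counterscreen on Bfl-1, used to check hits from a UBC13 polyubiquitin inhibitor campaign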
# T2 sequence (Q07440 whole entry): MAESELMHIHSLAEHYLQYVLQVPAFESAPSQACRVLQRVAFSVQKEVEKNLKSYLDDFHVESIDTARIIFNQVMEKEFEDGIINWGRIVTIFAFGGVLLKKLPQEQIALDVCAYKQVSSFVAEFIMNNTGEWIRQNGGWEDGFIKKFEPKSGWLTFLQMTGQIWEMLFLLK
# [3] = target: T3, Ubiquitin-conjugating enzyme E2 N (Homo sapiens, UniProt P61088); format: functional
# T3 sequence (P61088 whole entry): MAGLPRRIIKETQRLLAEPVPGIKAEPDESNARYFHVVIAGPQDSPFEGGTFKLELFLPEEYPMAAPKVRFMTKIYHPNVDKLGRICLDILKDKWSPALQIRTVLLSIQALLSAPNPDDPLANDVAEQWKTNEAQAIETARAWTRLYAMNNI
# [4] = target: T3, Ubiquitin-conjugating enzyme E2 N; format: functional; remark: listed apart in the source
# SUMO-activating enzyme [5] = target: T4, SUMO-activating enzyme (Homo sapiens, UniProt Q9UBT2); experiment: inhibitors of in vitro SUMOylation cascade, primary screen, biochemical, HTRF, uHTS (AID 2006); format: protein-complex assay
# SUMO-activating enzyme [6] = target: T4, SUMO-activating enzyme; experiment: SUMOylation inhibitor hit validation, confirmation, SUMOylation inhibitor project, biochemical, AlphaScreen (AID 2018); format: functional
# [7] = HEp-2 cell cytotoxicity, dose response, cytotoxicity control for RSV inhibitor project, HTS (AID 2410); format: functional; details: human respiratory syncytial virus
# [8] = target: Eukaryotic translation initiation factor 4E (Mus musculus, UniProt P63073); experiment: eIF4E–eIF4G protein interaction inhibitors, dose response, biochemical, TR-FRET (AID 855); format: functional;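 further: potency for disrupting eIF4E binding to eIF4GI seen as loss of FRET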
# [9] = target: T5, DNA repair protein RAD52 homolog (Homo sapiens, UniProt P43351); format: functional, biochemical
# T5 sequence (P43351 whole entry): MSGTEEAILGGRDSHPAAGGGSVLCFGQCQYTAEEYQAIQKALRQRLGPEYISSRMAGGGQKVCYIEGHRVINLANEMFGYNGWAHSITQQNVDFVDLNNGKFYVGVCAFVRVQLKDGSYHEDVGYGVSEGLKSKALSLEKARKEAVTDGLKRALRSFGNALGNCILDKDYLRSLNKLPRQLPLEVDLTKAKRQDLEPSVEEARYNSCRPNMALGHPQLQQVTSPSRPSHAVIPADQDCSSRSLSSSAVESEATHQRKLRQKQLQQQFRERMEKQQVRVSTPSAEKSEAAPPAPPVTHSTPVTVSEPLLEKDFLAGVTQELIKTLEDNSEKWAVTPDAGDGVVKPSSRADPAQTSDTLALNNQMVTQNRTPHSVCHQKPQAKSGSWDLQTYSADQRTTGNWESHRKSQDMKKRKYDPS
# Protein RecA = target: T6, Protein RecA (Mycobacterium tuberculosis, UniProt P9WHJ3); experiment: Fluorescence Cell-Free Homogeneous Dose Retest to Identify Inhibitors of RecA-Intein Splicing Activity. [Related pubchem assays (depositor defined):AID2097, AID2223, AID489010, AID492950]; format: functional
# T6 sequence (P9WHJ3 whole entry): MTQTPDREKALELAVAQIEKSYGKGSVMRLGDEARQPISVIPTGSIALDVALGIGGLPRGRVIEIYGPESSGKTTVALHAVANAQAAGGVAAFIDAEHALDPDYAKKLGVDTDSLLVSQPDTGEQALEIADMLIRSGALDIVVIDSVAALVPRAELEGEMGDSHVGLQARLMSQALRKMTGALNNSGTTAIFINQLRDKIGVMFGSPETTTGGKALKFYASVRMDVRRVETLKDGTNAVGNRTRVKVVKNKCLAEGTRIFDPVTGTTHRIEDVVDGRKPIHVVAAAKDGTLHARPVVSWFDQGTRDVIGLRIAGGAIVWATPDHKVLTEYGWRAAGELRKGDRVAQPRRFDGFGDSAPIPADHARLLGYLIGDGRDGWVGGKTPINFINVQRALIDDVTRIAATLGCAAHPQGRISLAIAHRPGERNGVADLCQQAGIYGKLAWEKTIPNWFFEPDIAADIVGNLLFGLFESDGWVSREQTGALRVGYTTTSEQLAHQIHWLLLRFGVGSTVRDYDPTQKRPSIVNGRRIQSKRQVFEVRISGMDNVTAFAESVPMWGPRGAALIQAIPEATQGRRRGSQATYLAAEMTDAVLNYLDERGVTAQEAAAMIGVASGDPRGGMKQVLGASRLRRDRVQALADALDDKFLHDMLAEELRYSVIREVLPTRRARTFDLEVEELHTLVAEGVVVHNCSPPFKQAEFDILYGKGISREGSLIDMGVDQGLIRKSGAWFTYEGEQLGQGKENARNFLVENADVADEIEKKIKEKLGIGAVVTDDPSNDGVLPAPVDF
# [10] = target: T7, Replicative DNA helicase DnaB (Mycobacterium tuberculosis, UniProt P9WMR3); experiment: DnaB intein splicing inhibitors, dose response, biochemical, cell-free fluorescence (AID 449749); format: functional
# T7 sequence (P9WMR3 whole entry): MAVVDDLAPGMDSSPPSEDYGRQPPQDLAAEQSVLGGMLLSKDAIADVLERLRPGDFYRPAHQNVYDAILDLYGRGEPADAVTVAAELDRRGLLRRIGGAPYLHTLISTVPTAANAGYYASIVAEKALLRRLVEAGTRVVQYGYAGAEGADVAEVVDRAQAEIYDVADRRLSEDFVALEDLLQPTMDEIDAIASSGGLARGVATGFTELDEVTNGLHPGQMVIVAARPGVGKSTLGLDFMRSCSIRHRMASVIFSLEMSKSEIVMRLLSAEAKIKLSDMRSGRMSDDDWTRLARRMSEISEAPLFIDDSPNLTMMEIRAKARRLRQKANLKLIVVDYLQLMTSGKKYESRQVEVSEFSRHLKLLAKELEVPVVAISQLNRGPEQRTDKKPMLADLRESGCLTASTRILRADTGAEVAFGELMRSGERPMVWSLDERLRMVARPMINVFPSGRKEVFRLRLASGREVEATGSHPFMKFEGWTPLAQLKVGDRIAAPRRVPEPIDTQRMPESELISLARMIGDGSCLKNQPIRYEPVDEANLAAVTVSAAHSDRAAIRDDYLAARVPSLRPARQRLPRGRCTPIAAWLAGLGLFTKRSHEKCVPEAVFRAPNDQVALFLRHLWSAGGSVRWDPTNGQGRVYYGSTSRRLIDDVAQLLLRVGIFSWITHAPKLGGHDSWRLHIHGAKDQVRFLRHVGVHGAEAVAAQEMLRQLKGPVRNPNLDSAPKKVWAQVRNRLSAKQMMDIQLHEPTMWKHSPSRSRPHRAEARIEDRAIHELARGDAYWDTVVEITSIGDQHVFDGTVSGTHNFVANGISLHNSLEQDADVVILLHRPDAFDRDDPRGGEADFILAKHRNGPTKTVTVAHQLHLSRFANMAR
# [11] = target: Induced myeloid leukemia cell differentiation protein Mcl-1 (Homo sapiens, UniProt Q07820); format: functional
# [12] = target: T8, Carboxy-terminal domain RNA polymerase II polypeptide A small phosphatase 1 (Homo sapiens, UniProt Q9GZU7); experiment: inhibitors of CTDSP1, concentration-response testing, biochemical assay, absorbance-based, actives from ultra-high-throughput screening (AID 540297); format: functional
# T8 sequence (Q9GZU7 whole entry): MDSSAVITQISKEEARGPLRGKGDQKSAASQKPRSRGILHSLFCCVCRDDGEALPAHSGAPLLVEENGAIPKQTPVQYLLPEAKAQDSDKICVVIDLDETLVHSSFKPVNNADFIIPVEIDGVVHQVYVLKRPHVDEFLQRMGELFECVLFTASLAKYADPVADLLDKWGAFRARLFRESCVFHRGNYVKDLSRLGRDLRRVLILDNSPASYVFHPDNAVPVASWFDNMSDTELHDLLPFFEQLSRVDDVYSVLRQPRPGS
# [13] = target: T9, Heat shock factor protein 1 (Mus musculus, UniProt P38532); experiment: HSF1 potentiators in luciferase reporter cells, confirmation, cell-based, NIH3T3, luminescence, dose retest (AID 435004); format: functional;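 further: stress induced by proteasome inhibitor MG132 added 30 min after compound; luciferase reporter driven by HSF1 response element in NIH3T3 cells; actives raise luminescence as potentiators of the MG132 stress response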
# T9 sequence (P38532 whole entry): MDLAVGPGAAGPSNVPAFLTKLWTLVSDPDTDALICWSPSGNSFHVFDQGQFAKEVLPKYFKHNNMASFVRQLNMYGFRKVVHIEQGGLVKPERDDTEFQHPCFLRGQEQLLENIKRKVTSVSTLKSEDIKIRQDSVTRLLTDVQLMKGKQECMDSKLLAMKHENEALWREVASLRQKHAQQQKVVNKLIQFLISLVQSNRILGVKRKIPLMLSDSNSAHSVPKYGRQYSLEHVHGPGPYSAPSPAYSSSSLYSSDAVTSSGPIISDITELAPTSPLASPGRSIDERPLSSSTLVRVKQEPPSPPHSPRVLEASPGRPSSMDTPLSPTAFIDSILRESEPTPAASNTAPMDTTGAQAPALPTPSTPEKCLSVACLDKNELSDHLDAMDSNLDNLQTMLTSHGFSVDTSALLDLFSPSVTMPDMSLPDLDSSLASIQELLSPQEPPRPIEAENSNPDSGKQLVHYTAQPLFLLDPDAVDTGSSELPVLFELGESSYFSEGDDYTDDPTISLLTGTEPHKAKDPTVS
# cells [14] = format: functional, cell-based
# [15] = HepG2 cell cytotoxicity, dose response, cytotoxicity control for non-replicating M. tuberculosis project (AID 489018); format: functional; details: Mycobacterium tuberculosis
# [16] = THP-1 cell cytotoxicity, dose response, cytotoxicity control for non-replicating M. tuberculosis project (AID 489025); format: functional
# [17] = Vero E6 cell cytotoxicity, dose response, cytotoxicity control for non-replicating M. tuberculosis project, secondary assay (AID 492998); format: functional, VeroE6; details: Vero C1008
# cells [18] = format: functional, cell-based; remark: listed apart in the source
# Sequence of Glyceraldehyde-3-phosphate dehydrogenase (P04406 whole entry): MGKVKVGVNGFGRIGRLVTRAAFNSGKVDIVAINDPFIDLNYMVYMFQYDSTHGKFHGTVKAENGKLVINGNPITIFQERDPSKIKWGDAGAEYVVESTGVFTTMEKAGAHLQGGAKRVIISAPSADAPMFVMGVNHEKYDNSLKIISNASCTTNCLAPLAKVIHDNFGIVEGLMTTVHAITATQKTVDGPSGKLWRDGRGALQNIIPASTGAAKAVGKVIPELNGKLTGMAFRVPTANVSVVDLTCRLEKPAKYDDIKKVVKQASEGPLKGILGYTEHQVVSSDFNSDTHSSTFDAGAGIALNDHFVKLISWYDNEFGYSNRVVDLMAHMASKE
# T4 sequence (Q9UBE0 whole entry): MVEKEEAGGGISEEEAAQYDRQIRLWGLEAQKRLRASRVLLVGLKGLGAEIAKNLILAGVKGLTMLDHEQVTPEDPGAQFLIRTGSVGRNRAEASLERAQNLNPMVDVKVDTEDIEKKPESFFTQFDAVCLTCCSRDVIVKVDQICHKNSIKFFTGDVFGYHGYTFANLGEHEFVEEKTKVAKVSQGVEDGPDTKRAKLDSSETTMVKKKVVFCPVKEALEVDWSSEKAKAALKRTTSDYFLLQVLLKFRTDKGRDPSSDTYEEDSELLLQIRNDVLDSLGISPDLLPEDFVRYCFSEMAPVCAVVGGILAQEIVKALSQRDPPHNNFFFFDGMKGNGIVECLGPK
# T4 sequence (Q9UBT2 whole entry): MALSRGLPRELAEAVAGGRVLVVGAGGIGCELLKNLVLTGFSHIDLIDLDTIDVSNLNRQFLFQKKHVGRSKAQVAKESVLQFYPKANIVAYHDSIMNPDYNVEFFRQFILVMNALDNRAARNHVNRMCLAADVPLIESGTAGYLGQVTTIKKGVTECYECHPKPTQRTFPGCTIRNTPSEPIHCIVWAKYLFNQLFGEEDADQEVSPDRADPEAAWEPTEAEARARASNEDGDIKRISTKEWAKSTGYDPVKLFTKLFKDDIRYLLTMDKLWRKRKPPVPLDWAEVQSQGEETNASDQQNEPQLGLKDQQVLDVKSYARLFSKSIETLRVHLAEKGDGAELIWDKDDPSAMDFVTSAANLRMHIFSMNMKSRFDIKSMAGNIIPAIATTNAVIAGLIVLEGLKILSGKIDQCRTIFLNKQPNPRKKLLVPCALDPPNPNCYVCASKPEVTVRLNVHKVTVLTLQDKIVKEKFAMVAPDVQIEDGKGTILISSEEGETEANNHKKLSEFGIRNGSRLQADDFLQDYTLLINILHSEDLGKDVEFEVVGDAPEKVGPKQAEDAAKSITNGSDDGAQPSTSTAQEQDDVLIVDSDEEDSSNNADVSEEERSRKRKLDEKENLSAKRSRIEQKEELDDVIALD
# Sequence of Eukaryotic translation initiation factor 4E (P63073 whole entry): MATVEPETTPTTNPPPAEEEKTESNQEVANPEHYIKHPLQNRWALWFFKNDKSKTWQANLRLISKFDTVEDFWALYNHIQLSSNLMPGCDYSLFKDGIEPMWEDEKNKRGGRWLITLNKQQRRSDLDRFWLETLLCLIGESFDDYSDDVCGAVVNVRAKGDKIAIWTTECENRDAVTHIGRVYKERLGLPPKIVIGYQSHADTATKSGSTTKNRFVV
# Sequence of Induced myeloid leukemia cell differentiation protein Mcl-1 (Q07820 whole entry, the tested form may be a part): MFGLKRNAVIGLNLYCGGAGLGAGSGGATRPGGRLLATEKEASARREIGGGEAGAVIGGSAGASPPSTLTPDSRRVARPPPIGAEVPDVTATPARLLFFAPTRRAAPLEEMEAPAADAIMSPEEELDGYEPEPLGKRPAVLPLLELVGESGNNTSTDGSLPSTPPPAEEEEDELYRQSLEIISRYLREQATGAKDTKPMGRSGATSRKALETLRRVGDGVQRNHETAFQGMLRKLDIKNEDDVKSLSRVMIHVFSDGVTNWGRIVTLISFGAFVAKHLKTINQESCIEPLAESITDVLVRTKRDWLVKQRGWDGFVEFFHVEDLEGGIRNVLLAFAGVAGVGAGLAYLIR
smiles,measurement,setting,value
O=S(=O)(Nc1ccncn1)c1ccccc1,IC50,[1],> 100 µM (not active)
same,IC50,[2],> 100 µM (inactive)
COc1ccc(Cn2c(SCC(=O)NCc3ccco3)nc3ccsc3c2=O)cc1,IC50,Bcl-2-related protein A1,> 20 µM (inactive)
same,IC50,[3],14.4 µM (active)
same,IC50,[4],10.4 µM (active)
Cc1ccccc1C(=O)N1CCN(c2ccc(NC(=S)NC(=O)c3cccs3)cc2)CC1,IC50,Bcl-2-related protein A1,> 20 µM (inactive)
same,IC50,[3],15.6 µM (active)
same,IC50,[4],10.8 µM (active)
Cc1ccc(C2=NN(C(=O)CCC(=O)O)C(c3cn(-c4ccccc4)nc3-c3ccc(C)cc3)C2)cc1 (stereo unspecified),IC50,SUMO-activating enzyme [5],20.1 µM (active)
same,IC50,SUMO-activating enzyme [6],4.8 µM (active)
same,CC50,[7],24.8 µM (active)
COC(=O)c1cc(-c2ccc(OC)cc2)[nH]n1,IC50,[1],> 100 µM (not active)
same,IC50,[2],2.33 µM (active)
CN1CCN(CCCNC(=O)c2ccc(/C=C3\Sc4ccccc4N(Cc4ccc(F)cc4)C3=O)cc2)CC1,IC50,[8],50 µM (inactive)
same,AC50,[9],8.2 µM (active)
Nc1ccc(N)c(C(=O)O)c1,EC50,Protein RecA,3.76 µM (active)
same,IC50,[8],13.4 µM (active)
same,AC50,[10],6.81 µM (active)
same,IC50,[11],1.59 µM (active)
CC(OC(=O)c1cc(-c2ccc(Br)cc2)[nH]n1)C(=O)NC(C)(C)C (stereo unspecified),IC50,[1],> 100 µM (not active)
same,IC50,[2],19.5 µM (active)
CCC(OCC(O)CN1CCN(CCN2C(=O)c3cccc4cccc(c34)C2=O)CC1)c1ccccc1 (stereo unspecified),IC50,Bcl-2-related protein A1,> 20 µM (inactive)
same,IC50,[3],9.26 µM (active)
same,IC50,[4],12.4 µM (active)
O=C(N/N=C/c1ccc([N+](=O)[O-])o1)c1cc2c(ccc3ccccc32)o1,IC50,SUMO-activating enzyme [5],11 µM (active)
same,IC50,[8],50 µM (inactive)
same,IC50,SUMO-activating enzyme [6],28.4 µM (active)
O=C(N/N=C/c1ccc(-c2cccc([N+](=O)[O-])c2)o1)c1ccccc1O,IC50,SUMO-activating enzyme [5],15.9 µM (active)
same,IC50,SUMO-activating enzyme [6],16.3 µM (active)
same,IC50,[12],3.68 µM (active)
same,EC50,[13],> 260 µM (inactive)
O=C(CCc1ccccc1)N/N=C/c1cc(Br)ccc1O,EC50,cells [14],261 µM (active)
same,CC50,[15],13.5 µM (active)
same,CC50,[16],6.36 µM (active)
same,CC50,[17],12.3 µM (active)
same,EC50,cells [18],286 µM (active)
